{
  "source": "patent US20240238247A1",
  "about": "“METHOD OF TREATING EXPRESSIVE LANGUAGE DEFICIT IN AUTISTIC HUMANS” (AMS Therapeutics, priority 2022, published 2024)",
  "format_in_all_cases": "in vivo",
  "key": {"[1]": {"system": "autistic human patients", "experiment": "Social behavior graded on 7-point scale (-3 to +3 vs baseline), based on Aberrant Behavior Checklist, in autistic patients treated with ETS", "conditions": "for Improvement Over Baseline, Social behavior: after six months of ETS therapy", "protocol": "(§1) To assess the effectiveness of ethosuximide as a pharmacological treatment for expressive language deficit, 24 human patients were treated with ethosuximide (ETS) for at least one month, more preferably six months or longer, and their language, social, and behavioral skills were monitored throughout the course of treatment, typically every 1-3 months. Study participants (subjects) were divided into four treatment groups based on neurodevelopmental level (mental status): normal IQ (NIQ), borderline IQ (BIQ), mild mental retardation (mMR), and moderate mental retardation (moMR). Language skills (expressiveness, receptivity), social behavior (social interaction, eye contact, participation), and mood (affect, irritability, agitation) were evaluated at various points in time. Verbal output was graded using a 7-point scale (0-6), where 0=nonverbal, 1=echolalic (the patient can respond by echoing the speaker), 2=single words (the patient can respond in single words), 3=phrases (the patient can respond in a simple phrase), 4=sentences (the patient can respond in a full sentence), 5=spontaneous speech (the patient can speak spontaneously), and 6=mutual speech (the patient can have a true conversation with another person). Social behavior and mood symptoms, based on those described in the Aberrant Behavior Checklist, an established behavioral rating system used in evaluating patients with intellectual disabilities (see Aman, M. G., et al., “The Aberrant Behavior Checklist: A behavior rating scale for the assessment of treatment effects,” American Journal of Mental Deficiency, 89(5):485-491 (1985), incorporated by reference herein), were also graded on a 7-point scale (0±3). […] Social behavior and mood data are presented below in Table 8. To evaluate drug efficacy and onset of action, each patient was monitored for changes in language, social behavior, and mood at various times after commencement of ETS therapy. Performance characteristics observed for each function (expressive language, mood, behavior) are summarized in Table 6, at t=1 month after commencement of treatment and t=3 months after commencement of treatment."}, "[2]": {"system": "autistic human patients", "experiment": "Tolerability / side effects of ETS treatment in the study patients", "excerpt": "Common side effects reported in the literature for patients receiving ethosuximide treatment for childhood absence epilepsy include abdominal distress, diarrhea, weight loss, hyperactivity, lethargy, leukopenia, and depression. Very few of these symptoms were reported or observed in the patients participating in the study herein described. Eleven patients stopped ETS treatment after 6 months or less. Five of these patients dropped out for non-medical reasons."}, "[3]": {"system": "autistic human patients with expressive language deficit", "experiment": "Expressive language (verbal output) graded on 7-point scale (0-6) in autistic patients treated with ethosuximide (ETS)", "conditions": "for mean expressive language score after six months (Rx): FIG. 1; for Improvement Over Baseline, Expressive language: after six months of ETS therapy; for mean improvement in expressive language score: normal IQ patients (N=8) treated more than one month, 7-point scale of Table 1", "protocol": "To assess the effectiveness of ethosuximide as a pharmacological treatment for expressive language deficit, 24 human patients were treated with ethosuximide (ETS) for at least one month, more preferably six months or longer, and their language, social, and behavioral skills were monitored throughout the course of treatment, typically every 1-3 months. Study participants (subjects) were divided into four treatment groups based on neurodevelopmental level (mental status): normal IQ (NIQ), borderline IQ (BIQ), mild mental retardation (mMR), and moderate mental retardation (moMR). Language skills (expressiveness, receptivity), social behavior (social interaction, eye contact, participation), and mood (affect, irritability, agitation) were evaluated at various points in time. Verbal output was graded using a 7-point scale (0-6), where 0=nonverbal, 1=echolalic (the patient can respond by echoing the speaker), 2=single words (the patient can respond in single words), 3=phrases (the patient can respond in a simple phrase), 4=sentences (the patient can respond in a full sentence), 5=spontaneous speech (the patient can speak spontaneously), and 6=mutual speech (the patient can have a true conversation with another person). [table] To evaluate drug efficacy and onset of action, each patient was monitored for changes in language, social behavior, and mood at various times after commencement of ETS therapy. Performance characteristics observed for each function (expressive language, mood, behavior) are summarized in Table 6, at t=1 month after commencement of treatment and t=3 months after commencement of treatment."}, "[4]": {"system": "autistic human patients", "experiment": "Mood graded on 7-point scale (-3 to +3 vs baseline), based on Aberrant Behavior Checklist, in autistic patients treated with ETS", "conditions": "for Improvement Over Baseline, Mood: after six months of ETS therapy", "protocol": "as §1"}, "[5]": {"conditions": "normal IQ patients, Aberrant Behavior Checklist methodology"}},
  "note": "“Also recorded” adds a separate entry of the source.",
  "data": [
    {"smiles": "CCC1(C)CC(=O)NC1=O", "note": "(centres unmarked) [ETS, 2-ethyl-2-methylsuccinimide]", "values": [
      {"measurement": "Improvement Over Baseline, Social behavior", "setting": "[1]; BIQ", "result": "+1.5"},
      {"measurement": "Improvement Over Baseline, Social behavior", "setting": "[1]; NIQ", "result": "+2.0"},
      {"measurement": "Social behavior, observed performance", "setting": "[1]; after 1 month of treatment", "result": "More engaged"},
      {"measurement": "Social behavior: increased eye contact, score change", "setting": "[1]; after 1 month of treatment", "result": "contact (+1)"},
      {"measurement": "Social behavior, observed performance", "setting": "[1]; after 3 months of treatment", "result": "Sits in groups"},
      {"measurement": "Improvement Over Baseline, Social behavior", "setting": "[1]; mMR", "result": "+1.0"},
      {"measurement": "Improvement Over Baseline, Social behavior", "setting": "[1]; moMR", "result": "+1.0"},
      {"measurement": "gain in social behavior", "setting": "[1]; [5]", "result": "+2 points"},
      {"measurement": "tolerability", "setting": "[2]; all ages evaluated (3-24 years), 150-1000 mg b.i.d.", "result": "well tolerated"},
      {"measurement": "literature side effects (abdominal distress, diarrhea, weight loss, hyperactivity, lethargy, leukopenia, depression) reported or observed", "setting": "[2]; patients participating in the study", "result": "Very few"},
      {"measurement": "mean expressive language score after six months (Rx)", "setting": "[3]; BIQ group, N=4, baseline 1.7, 0-6 scale", "result": 2.75},
      {"measurement": "Improvement Over Baseline, Expressive language", "setting": "[3]; BIQ", "result": "+1.0"},
      {"measurement": "mean expressive language score after six months (Rx)", "setting": "[3]; NIQ group, N=8, baseline 2.5, 0-6 scale", "result": 4.4},
      {"measurement": "Improvement Over Baseline, Expressive language", "setting": "[3]; NIQ", "result": "+2.0"},
      {"measurement": "expressive language score", "setting": "[3]; Patient A, after 3 months, baseline score 2 (single words)", "result": 3},
      {"measurement": "expressive language, observation", "setting": "[3]; Patient A, at 6-9 months", "result": "responding in full sentences"},
      {"measurement": "expressive language, observation", "setting": "[3]; Patient A, at 9-12 months", "result": "speak spontaneously and even ask questions"},
      {"measurement": "Language development", "setting": "[3]; Patient A, baseline SW, 1 mo.", "result": "Increased"},
      {"measurement": "Language development (expressive language class)", "setting": "[3]; Patient A, baseline SW, 3 mo.", "result": "PH (Phrases)"},
      {"measurement": "Language development (expressive language class)", "setting": "[3]; Patient A, baseline SW, 6 mo.", "result": "SN/SP"},
      {"measurement": "Language development (expressive language class)", "setting": "[3]; Patient A, baseline SW, 9 mo.", "result": "SN/SP"},
      {"measurement": "Language development (expressive language class)", "setting": "[3]; Patient A, baseline SW, 12 mo.", "result": "SN/SP/MU"},
      {"measurement": "expressive language, observation", "setting": "[3]; Patient A, one month after onset of ETS treatment, baseline score 2", "result": "saying more words"},
      {"measurement": "Language development (4-word PH)", "setting": "[3]; Patient B, baseline EC/2-word PH, 3 mo.", "result": "4-word"},
      {"measurement": "Language development (expressive language class)", "setting": "[3]; Patient B, baseline EC/2-word PH, 6 mo.", "result": "SN (Sentences)"},
      {"measurement": "Language development (expressive language class)", "setting": "[3]; Patient B, baseline EC/2-word PH, 9 mo.", "result": "SN/SP"},
      {"measurement": "expressive language, observation", "setting": "[3]; Patient B, by month 6", "result": "speak in sentences"},
      {"measurement": "expressive language, observation", "setting": "[3]; Patient B, by month 9", "result": "converse spontaneously at times"},
      {"measurement": "expressive language, observation", "setting": "[3]; Patient B, three months after onset of treatment, echolalic, some two-word phrases before", "result": "3 and 4-word phrases"},
      {"measurement": "expressive language skills during treatment", "setting": "[3]; Patient C, autistic child, 6 months of ETS, FIG. 3", "result": "steadily improved"},
      {"measurement": "expressive language, observation", "setting": "[3]; Patients A and B (normal IQ), by 9 months from commencement of treatment, FIG. 2", "result": "some spontaneous speech"},
      {"measurement": "language skills after ETS treatment was stopped", "setting": "[3]; Patients C (stopped at 6 months) and D (stopped at 9 months), evaluated several months later, FIG. 3", "result": "continued to improve"},
      {"measurement": "Expressive language: increased word count (talking more), score change", "setting": "[3]; after 1 month of treatment", "result": "count (+1)"},
      {"measurement": "Expressive language, observed performance", "setting": "[3]; after 3 months of treatment", "result": "2-word phrases and Listening better and makes wants clearer"},
      {"measurement": "effect on expressive language skills", "setting": "[3]; both epileptic (7 of 24) and non-epileptic patients", "result": "improved"},
      {"measurement": "mean expressive language score after six months (Rx)", "setting": "[3]; mMR group, N=6, baseline 1.3, 0-6 scale", "result": 2.5},
      {"measurement": "Improvement Over Baseline, Expressive language", "setting": "[3]; mMR", "result": "+1.2"},
      {"measurement": "mean expressive language score after six months (Rx)", "setting": "[3]; moMR group, N=2, baseline 0.5, 0-6 scale", "result": 1.0},
      {"measurement": "Improvement Over Baseline, Expressive language", "setting": "[3]; moMR", "result": "+0.5"},
      {"measurement": "mean improvement in expressive language score", "setting": "[3]", "result": 1.9, "unit": "points"},
      {"measurement": "mean improvement in expressive language score", "setting": "[3]; listed as ethosuximide", "result": "about 2 points"},
      {"measurement": "improvements in expressive language and social skills", "setting": "[3]; one month after commencing daily treatment", "result": "evident"},
      {"measurement": "retention of language gains after discontinuation", "setting": "[3]; patients who discontinued treatment (after six months)", "result": "did not lose their language gains"},
      {"measurement": "Improvement Over Baseline, Mood", "setting": "[4]; BIQ", "result": "+1.4"},
      {"measurement": "Improvement Over Baseline, Mood", "setting": "[4]; NIQ", "result": "+1.2"},
      {"measurement": "Mood / focus observation", "setting": "[4]; Patient B, 3 months after onset of treatment", "result": "more focused and calmer; also recorded: focused; also recorded: calmer"},
      {"measurement": "Mood: calmer, score change", "setting": "[4]; after 1 month of treatment", "result": "Calmer (+1)"},
      {"measurement": "Mood: more focused, score change", "setting": "[4]; after 1 month of treatment", "result": "More focused (+1)"},
      {"measurement": "Mood, observed performance", "setting": "[4]; after 3 months of treatment", "result": "Fewer tantrums"},
      {"measurement": "Improvement Over Baseline, Mood", "setting": "[4]; mMR", "result": "+1.0"},
      {"measurement": "Improvement Over Baseline, Mood", "setting": "[4]; moMR", "result": 0.0},
      {"measurement": "Improvement Over Baseline, Mood", "setting": "[4]; moMR, listed as ethosuximide", "result": "no change"},
      {"measurement": "gain in mood", "setting": "[4]; [5]", "result": "+1.2 points"}
    ]}
  ]
}
